The results in this text go back to publication PMC5218480 (PLoS ONE, 2017).

For this experiment, the system named is MV-4-11 cells. In words: Gene expression microarray analysis (Affymetrix PrimeView) and GSEA. The experiment is classed as cell-based, human. On the set-up: RFU PODN (11730768_x_at) / Fold change /veh PODN (11730768_x_at) / RFU LINC00158 (11744669_a_at) / Fold change /veh LINC00158 (11744669_a_at) / RFU DUSP10 (11751237_a_at) / Fold change /veh DUSP10 (11751237_a_at) / RFU ID3 (11757404_x_at) / Fold change /veh ID3 (11757404_x_at) / RFU PLEKHG5 (11737974_s_at) / Fold change /veh PLEKHG5 (11737974_s_at) / RFU LRRC4B (11730491_at) / Fold change /veh LRRC4B (11730491_at) / RFU GIMAP4 (11747438_a_at) / Fold change /veh GIMAP4 (11747438_a_at) / RFU KRT8 (11758183_x_at) / Fold change /veh KRT8 (11758183_x_at) / RFU CNN1 (11734310_a_at) / Fold change /veh CNN1 (11734310_a_at) / RFU VPS37D (11726825_at) / Fold change /veh VPS37D (11726825_at) / RFU C10orf10 (11716522_x_at) / Fold change /veh C10orf10 (11716522_x_at) / RFU KIR2DL2 /// KIR2DL4 /// KIR2DL5A /// KIR2DL5B /// KIR2DS1 /// KIR2DS2 /// KIR2DS3 /// KIR2DS4 /// KIR3DL3 /// KIR3DL3 /// KIR3DS1 (11738374_at) / Fold change /veh KIR2DL2 /// KIR2DL4 /// KIR2DL5A /// KIR2DL5B /// KIR2DS1 /// KIR2DS2 /// KIR2DS3 /// KIR2DS4 /// KIR3DL3 /// KIR3DL3 /// KIR3DS1 (11738374_at) / RFU C1QL1 (11718748_at) / Fold change /veh C1QL1 (11718748_at) / RFU TMPRSS4 (11747572_a_at) / Fold change /veh TMPRSS4 (11747572_a_at) / RFU HAMP (11756126_x_at) / Fold change /veh HAMP (11756126_x_at) / RFU RNFT2 (11725882_a_at) / Fold change /veh RNFT2 (11725882_a_at) / RFU NR4A2 (11747474_a_at) / Fold change /veh NR4A2 (11747474_a_at) / RFU ABCC12 (11746883_a_at) / Fold change /veh ABCC12 (11746883_a_at) / RFU TMEM136 (11760407_x_at) / Fold change /veh TMEM136 (11760407_x_at) / RFU CLDN22 /// WWC2 (11732394_at) / Fold change /veh CLDN22 /// WWC2 (11732394_at) / RFU HLA-DPB1 (11760878_x_at) / Fold change /veh HLA-DPB1 (11760878_x_at) / RFU SPINT1 (11716480_a_at) / Fold change /veh SPINT1 (11716480_a_at) / RFU GAP43 (11754022_s_at) / Fold change /veh GAP43 (11754022_s_at) / RFU A4GNT (11735810_at) / Fold change /veh A4GNT (11735810_at) / RFU PRB3 (11715151_x_at) / Fold change /veh PRB3 (11715151_x_at) / RFU TUBB4B (11761932_at) / Fold change /veh TUBB4B (11761932_at) / RFU CAPN14 (11732068_a_at) / Fold change /veh CAPN14 (11732068_a_at) / RFU TMCC2 (11721928_a_at) / Fold change /veh TMCC2 (11721928_a_at) / RFU IRGQ (11745062_a_at) / Fold change /veh IRGQ (11745062_a_at) / RFU FAM174B (11720279_a_at) / Fold change /veh FAM174B (11720279_a_at) / RFU TMPRSS4 (11748680_a_at) / Fold change /veh TMPRSS4 (11748680_a_at) / RFU FAM212B (11763350_a_at) / Fold change /veh FAM212B (11763350_a_at) / RFU PLEKHG5 (11743358_a_at) / Fold change /veh PLEKHG5 (11743358_a_at) / RFU ZSCAN30 (11745921_a_at) / Fold change /veh ZSCAN30 (11745921_a_at) / RFU CMKLR1 (11741424_a_at) / Fold change /veh CMKLR1 (11741424_a_at) / RFU LOC101060620 /// MAPK8IP1 (11723275_at) / Fold change /veh LOC101060620 /// MAPK8IP1 (11723275_at) / RFU SPTSSB (11747773_x_at) / Fold change /veh SPTSSB (11747773_x_at) / RFU PRSS12 (11739890_at) / Fold change /veh PRSS12 (11739890_at) / RFU BIN1 (11741810_x_at) / Fold change /veh BIN1 (11741810_x_at) / RFU WNT11 (11732464_a_at) / Fold change /veh WNT11 (11732464_a_at) / RFU C10orf10 (11716521_a_at) / Fold change /veh C10orf10 (11716521_a_at) / RFU C5orf56 (11738089_at) / Fold change /veh C5orf56 (11738089_at) / RFU CYB561 (11721691_x_at) / Fold change /veh CYB561 (11721691_x_at) / RFU ANKRD19P (11752326_a_at) / Fold change /veh ANKRD19P (11752326_a_at) / RFU OR2T12 /// OR2T33 /// OR2T8 (11738714_s_at) / Fold change /veh OR2T12 /// OR2T33 /// OR2T8 (11738714_s_at) / RFU VCAN (11748164_a_at) / Fold change /veh VCAN (11748164_a_at) / RFU JSRP1 (11732532_at) / Fold change /veh JSRP1 (11732532_at) / RFU KRTAP10-11 (11738290_x_at) / Fold change /veh KRTAP10-11 (11738290_x_at) / RFU MYO3A (11730013_a_at) / Fold change /veh MYO3A (11730013_a_at) / RFU EBF3 (11725865_a_at) / Fold change /veh EBF3 (11725865_a_at) / RFU CAMK2N1 (11719241_x_at) / Fold change /veh CAMK2N1 (11719241_x_at) / RFU C5orf56 (11738088_a_at) / Fold change /veh C5orf56 (11738088_a_at) / RFU OLFML3 (11715873_a_at) / Fold change /veh OLFML3 (11715873_a_at) / RFU LOC100653217 /// NTM (11731650_a_at) / Fold change /veh LOC100653217 /// NTM (11731650_a_at) / RFU MAPK11 (11762145_a_at) / Fold change /veh MAPK11 (11762145_a_at) / RFU FIZ1 (11724087_x_at) / Fold change /veh FIZ1 (11724087_x_at) / RFU OASL (11726364_x_at) / Fold change /veh OASL (11726364_x_at) / RFU SOX15 (11748057_x_at) / Fold change /veh SOX15 (11748057_x_at) / RFU CD79A (11719716_a_at) / Fold change /veh CD79A (11719716_a_at) / RFU HIST1H1D (11736915_at) / Fold change /veh HIST1H1D (11736915_at) / RFU CASKIN2 (11723855_a_at) / Fold change /veh CASKIN2 (11723855_a_at) / RFU LOC730098 (11760151_x_at) / Fold change /veh LOC730098 (11760151_x_at) / RFU OR4N2 (11742367_at) / Fold change /veh OR4N2 (11742367_at) / RFU PRRT2 (11749266_a_at) / Fold change /veh PRRT2 (11749266_a_at) / RFU SNX32 (11753110_a_at) / Fold change /veh SNX32 (11753110_a_at) / RFU CDHR5 (11726645_a_at) / Fold change /veh CDHR5 (11726645_a_at) / RFU RCAN1 (11760418_a_at) / Fold change /veh RCAN1 (11760418_a_at) / RFU FAM167A (11723789_a_at) / Fold change /veh FAM167A (11723789_a_at) / RFU FAM26E (11764081_at) / Fold change /veh FAM26E (11764081_at) / RFU ISYNA1 (11749810_s_at) / Fold change /veh ISYNA1 (11749810_s_at) / RFU ACY1 (11761880_at) / Fold change /veh ACY1 (11761880_at) / RFU 11764098_at / Fold change /veh 11764098_at / RFU SAMD14 (11745864_x_at) / Fold change /veh SAMD14 (11745864_x_at) / RFU NPB (11741838_a_at) / Fold change /veh NPB (11741838_a_at) / RFU TMPRSS6 (11731388_a_at) / Fold change /veh TMPRSS6 (11731388_a_at) / RFU KRTAP10-2 (11738614_at) / Fold change /veh KRTAP10-2 (11738614_at) / RFU ARHGAP8 /// PRR5-ARHGAP8 (11727945_x_at) / Fold change /veh ARHGAP8 /// PRR5-ARHGAP8 (11727945_x_at) / RFU KRTAP5-7 /// NADSYN1 (11734609_at) / Fold change /veh KRTAP5-7 /// NADSYN1 (11734609_at) / RFU RASL12 (11751679_a_at) / Fold change /veh RASL12 (11751679_a_at) / RFU CDKN2B (11736163_a_at) / Fold change /veh CDKN2B (11736163_a_at) / RFU PRF1 (11729649_at) / Fold change /veh PRF1 (11729649_at) / RFU, ZNF638 /// ZNF638-IT1 / Fold change vs veh, ZNF638 /// ZNF638-IT1 / RFU, PANK3 / Fold change vs veh, PANK3 / RFU, SH3YL1 / Fold change vs veh, SH3YL1 / RFU, ZEB2 / Fold change vs veh, ZEB2 / RFU, NRIP1 / Fold change vs veh, NRIP1 / RFU, PTTG1IP / Fold change vs veh, PTTG1IP / RFU, CAPN2 / Fold change vs veh, CAPN2 / RFU, MED14 / Fold change vs veh, MED14 / RFU, SNORA58 / Fold change vs veh, SNORA58 / RFU, C1orf63 / Fold change vs veh, C1orf63 / RFU, LRRFIP1 / Fold change vs veh, LRRFIP1 / RFU, NDUFAF7 / Fold change vs veh, NDUFAF7 / RFU, SLC12A2 / Fold change vs veh, SLC12A2 / RFU, IBTK / Fold change vs veh, IBTK / RFU, ESF1 / Fold change vs veh, ESF1 / Fold change vs veh, TMEM50B / RFU, TAOK1 / Fold change vs veh, TAOK1 / RFU, ACBD3 / Fold change vs veh, ACBD3 / RFU, TMA16 / Fold change vs veh, TMA16 / RFU, RWDD3 / Fold change vs veh, RWDD3 / RFU, BCAT1 / Fold change vs veh, BCAT1 / RFU, EDEM3 / Fold change vs veh, EDEM3 / RFU, TMEM33 / Fold change vs veh, TMEM33 / RFU, WDR75 / Fold change vs veh, WDR75 / RFU, AHCTF1 / Fold change vs veh, AHCTF1 / RFU, TFRC / Fold change vs veh, TFRC / RFU, ZDHHC17 / Fold change vs veh, ZDHHC17 / RFU, NOM1 / Fold change vs veh, NOM1 / RFU, ARL8B / Fold change vs veh, ARL8B / RFU, ZBTB11 / Fold change vs veh, ZBTB11 / RFU, TAMM41 / Fold change vs veh, TAMM41 / RFU, KIAA1704 /// LOC100996395 / Fold change vs veh, KIAA1704 /// LOC100996395 / RFU, ING1 / Fold change vs veh, ING1 / RFU, TRMT61B / Fold change vs veh, TRMT61B / RFU, FUBP3 / Fold change vs veh, FUBP3 / RFU, TP53 / Fold change vs veh, TP53 / RFU, TNKS2 / Fold change vs veh, TNKS2 / RFU, ZFP14 / Fold change vs veh, ZFP14 / RFU, ACTR2 / Fold change vs veh, ACTR2 / RFU, PPP3R1 / Fold change vs veh, PPP3R1 / RFU, PIK3R1 / Fold change vs veh, PIK3R1 / RFU, HNRNPA1 / Fold change vs veh, HNRNPA1 / RFU, RNF170 / Fold change vs veh, RNF170 / RFU, ZNF28 / Fold change vs veh, ZNF28 / RFU, RNGTT / Fold change vs veh, RNGTT / RFU, OGT / Fold change vs veh, OGT / RFU, BRD1 / Fold change vs veh, BRD1 / RFU, MARS / Fold change vs veh, MARS / RFU, ZNF655 / Fold change vs veh, ZNF655 / RFU, FAHD1 / Fold change vs veh, FAHD1 / RFU, BDP1 / Fold change vs veh, BDP1 / RFU, LRRCC1 / Fold change vs veh, LRRCC1 / RFU, ARID1A / Fold change vs veh, ARID1A / RFU, ZNF146 / Fold change vs veh, ZNF146 / RFU, ZNF330 / Fold change vs veh, ZNF330 / RFU, GPN3 / Fold change vs veh, GPN3 / RFU, C9orf123 / Fold change vs veh, C9orf123 / RFU, N4BP2L2 / Fold change vs veh, N4BP2L2 / RFU, ARFIP1 / Fold change vs veh, ARFIP1 / RFU, FAM179B / Fold change vs veh, FAM179B / RFU, BCL10 / Fold change vs veh, BCL10 / RFU, UHRF1BP1L / Fold change vs veh, UHRF1BP1L / RFU, BET1 / Fold change vs veh, BET1 / RFU, CNOT2 / Fold change vs veh, CNOT2 / RFU, ZNF268 / Fold change vs veh, ZNF268 / Fold change vs veh, ZNF507 / RFU, DGCR2 / Fold change vs veh, DGCR2 / RFU, WDSUB1 / Fold change vs veh, WDSUB1 / Fold change vs veh, HSP90B1 /// MIR3652 / RFU, ADSS / Fold change vs veh, ADSS / RFU, GK / Fold change vs veh, GK / RFU, ZNF148 / Fold change vs veh, ZNF148 / RFU, TAF9 / Fold change vs veh, TAF9 / RFU, SLC1A5 / Fold change vs veh, SLC1A5 / RFU, SLMO2 / Fold change vs veh, SLMO2 / RFU, ABCC4 / Fold change vs veh, ABCC4 / RFU, LOC101060439 /// RAP1B / Fold change vs veh, LOC101060439 /// RAP1B / RFU, RFX7 / Fold change vs veh, RFX7 / RFU, GTPBP10 / Fold change vs veh, GTPBP10 / RFU, CNEP1R1 / Fold change vs veh, CNEP1R1 / RFU, BIVM-ERCC5 /// ERCC5 / Fold change vs veh, BIVM-ERCC5 /// ERCC5 / RFU, ILF3 / Fold change vs veh, ILF3 / RFU 11762660_at / Fold change /veh 11762660_at / RFU VCAN (11757783_s_at) / Fold change /veh VCAN (11757783_s_at) / RFU DDX43 (11728927_at) / Fold change /veh DDX43 (11728927_at) / RFU KRT8 (11758188_x_at) / Fold change /veh KRT8 (11758188_x_at) / RFU NKD1 (11759106_at) / Fold change /veh NKD1 (11759106_at) / RFU SRD5A1 (11742802_a_at) / Fold change /veh SRD5A1 (11742802_a_at) / RFU TPSAB1 /// TPSB2 (11721975_s_at) / Fold change /veh TPSAB1 /// TPSB2 (11721975_s_at) / RFU GSTM3 (11746129_a_at) / Fold change /veh GSTM3 (11746129_a_at) / RFU IL23R (11737362_x_at) / Fold change /veh IL23R (11737362_x_at) / RFU TMEM51 (11727254_a_at) / Fold change /veh TMEM51 (11727254_a_at) / RFU PIWIL2 (11732686_x_at) / Fold change /veh PIWIL2 (11732686_x_at) / RFU ORM1 (11744905_x_at) / Fold change /veh ORM1 (11744905_x_at) / RFU CCDC152 (11743942_at) / Fold change /veh CCDC152 (11743942_at) / RFU ECM1 (11717891_a_at) / Fold change /veh ECM1 (11717891_a_at) / RFU IL23R (11748794_a_at) / Fold change /veh IL23R (11748794_a_at) / RFU TNFAIP8L3 (11732012_x_at) / Fold change /veh TNFAIP8L3 (11732012_x_at) / RFU MBOAT4 (11741988_at) / Fold change /veh MBOAT4 (11741988_at) / RFU 11764193_at / Fold change /veh 11764193_at / RFU TMEM53 (11763286_at) / Fold change /veh TMEM53 (11763286_at) / RFU MAGEB2 (11727129_at) / Fold change /veh MAGEB2 (11727129_at) / RFU TMEM200A (11744735_a_at) / Fold change /veh TMEM200A (11744735_a_at) / RFU CCDC152 (11751479_a_at) / Fold change /veh CCDC152 (11751479_a_at) / RFU FAM211A (11726209_a_at) / Fold change /veh FAM211A (11726209_a_at) / RFU RGS16 (11746705_a_at) / Fold change /veh RGS16 (11746705_a_at) / RFU VCAN (11755009_s_at) / Fold change /veh VCAN (11755009_s_at) / RFU RHOB (11743442_s_at) / Fold change /veh RHOB (11743442_s_at) / RFU RGS16 (11720943_a_at) / Fold change /veh RGS16 (11720943_a_at) / RFU RGS16 (11720944_at) / Fold change /veh RGS16 (11720944_at) / RFU, VPS4B / Fold change vs veh, VPS4B / RFU, CREB1 / Fold change vs veh, CREB1 / RFU, DNAJC13 / Fold change vs veh, DNAJC13 / RFU, GNAQ / Fold change vs veh, GNAQ / RFU, CDK5R1 / Fold change vs veh, CDK5R1 / RFU, ZRANB3 / Fold change vs veh, ZRANB3 / RFU, CUL4A / Fold change vs veh, CUL4A / RFU, CCNY / Fold change vs veh, CCNY / RFU, UFL1 / Fold change vs veh, UFL1 / RFU, COG3 / Fold change vs veh, COG3 / RFU, DIAPH2 / Fold change vs veh, DIAPH2 / RFU, SKA2 / Fold change vs veh, SKA2 / RFU, AFF3 / Fold change vs veh, AFF3 / RFU, LMF1 / Fold change vs veh, LMF1 / RFU, IPO11 / Fold change vs veh, IPO11 / RFU, DFFB / Fold change vs veh, DFFB / RFU, FOXP1 / Fold change vs veh, FOXP1 / RFU, CARD8 / Fold change vs veh, CARD8 / RFU, STRN3 / Fold change vs veh, STRN3 / RFU, ADK / Fold change vs veh, ADK / RFU, RASSF2 / Fold change vs veh, RASSF2 / RFU, WIPF1 / Fold change vs veh, WIPF1 / RFU, LARP1B / Fold change vs veh, LARP1B / RFU, RASA1 / Fold change vs veh, RASA1 / RFU, RB1 / Fold change vs veh, RB1 / RFU, PPFIA1 / Fold change vs veh, PPFIA1 / RFU, MAT2A / Fold change vs veh, MAT2A / RFU, CCT5 / Fold change vs veh, CCT5 / RFU, WDR92 / Fold change vs veh, WDR92 / RFU, CUX1 / Fold change vs veh, CUX1 / RFU, TTC7A / Fold change vs veh, TTC7A / RFU, TMEM135 / Fold change vs veh, TMEM135 / RFU, DEPTOR / Fold change vs veh, DEPTOR / RFU, CPM / Fold change vs veh, CPM / RFU, DNAJB6 / Fold change vs veh, DNAJB6 / RFU, CACNA2D3 / Fold change vs veh, CACNA2D3 / RFU, DTX4 / Fold change vs veh, DTX4 / RFU, TFCP2 / Fold change vs veh, TFCP2 / RFU, GMCL1 /// GMCL1P1 / Fold change vs veh, GMCL1 /// GMCL1P1 / RFU, AEBP2 / Fold change vs veh, AEBP2 / RFU, SNHG1 /// SNORD22 /// SNORD25 /// SNORD26 /// SNORD27 /// SNORD28 /// SNORD29 /// SNORD31 / Fold change vs veh, SNHG1 /// SNORD22 /// SNORD25 /// SNORD26 /// SNORD27 /// SNORD28 /// SNORD29 /// SNORD31 / Fold change (Aza/veh), C12orf56 (ProbeSet 11735607_a_at) / Fold change (ACY-1035/veh), C12orf56 (ProbeSet 11735607_a_at) / Fold change (Aza/veh), FGFR1OP (ProbeSet 11751329_s_at) / Fold change (ACY-1035/veh), FGFR1OP (ProbeSet 11751329_s_at) / Fold change (Aza/veh), VPS36 (ProbeSet 11739960_a_at) / Fold change (ACY-1035/veh), VPS36 (ProbeSet 11739960_a_at) / RFU SYPL1 (11715823_x_at) / Fold change /veh SYPL1 (11715823_x_at) / RFU IGFBP7 (11715501_s_at) / Fold change /veh IGFBP7 (11715501_s_at) / RFU REEP3 (11722064_at) / Fold change /veh REEP3 (11722064_at) / RFU IGLL1 (11728026_x_at) / Fold change /veh IGLL1 (11728026_x_at): dose or concentration left out as unconfirmed. Conditions: ProbeSet 11732154_at; LIST B.

Regarding `Nc1ncn([C@@H]2O[C@H](CO)[C@@H](O)[C@H]2O)c(=O)n1` [azacitidine], the “RFU, OGT” value is recorded as 289.66 RFU.
